# In the RepoRT retention time repository:
# Where a name gives a salt, the structure may show the parent alone.
# Assay: RP, Restek Raptor Biphenyl, 100 × 2.1 mm, 2.7 µm, 50 °C, 0.4 mL/min, estimated dead time 0.55 min; A: water + 0.1% formic acid, pH 3; B: methanol + 0.1% formic acid, pH 3; gradient (min/%B) 0/5 1.12/5 6.41/99.5 10.01/99.5
# Conditions: stereoisomer not certain
row,Compound,LC retention time [min]
1,CCCCCCCCCCCCCCC[n+]1cccc(S(=O)(=O)[O-])c1 [C15-APS],6.23
2,C=CCNC(=O)c1c([Si](C)(C)C)sc(C)c1C [Silthiofam],6
3,CCCCC[n+]1cccc(S(=O)(=O)[O-])c1 [C5-APS],3.33
4,CCCCCCCCCCCCCC(=O)OC(CC(=O)[O-])C[N+](C)(C)C [Myristoyl-L-carnitine],5.74
5,CCCCCCCCC[n+]1cccc(S(=O)(=O)[O-])c1 [C9-APS],5.13
6,c1ncc2[nH]cnc2n1 [PURINE],1.29
7,C=CC(=O)O [2-PROPENOATE],0.959
8,N#Cc1c[nH]cc1-c1cccc2c1OC(F)(F)O2 [Fludioxonil],5.51
9,CC1(C)CCC(Cc2ccc(Cl)cc2)C1(O)Cn1cncn1 (configuration not stated) [Metconazole],6.09
10,CN(C)C(=O)Nc1ccc(Cl)c(Cl)c1 [Diuron],5.22
11,O=C(Nc1ccc(F)cc1F)c1cccnc1Oc1cccc(C(F)(F)F)c1 [Diflufenican],6.33
12,CCCCCCCCCCCCCC[n+]1cccc(S(=O)(=O)[O-])c1 [C14-APS],6.1
13,CCCCCC=CCC=CCC=CCCCCC(=O)O [γ-Linolenic acid],6.54
14,CC(C)CCCCCCCCCCCCCC(=O)O [15-Methylpalmitic acid],6.58
15,CC(=O)NCCCC(=O)O [4-ACETAMIDOBUTANOATE],1.42
16,Cc1cc(C(F)(C(F)(F)F)C(F)(F)F)ccc1NC(=O)c1cccc(I)c1C(=O)NC(C)(C)CS(C)(=O)=O [Flubendiamide],5.97
17,Cc1ccn2nc(S(=O)(=O)Nc3c(F)cccc3F)nc2n1 [Flumetsulam],4.92
18,COc1cc(OC)nc(NC(=O)NS(=O)(=O)c2cc(NC=O)ccc2C(=O)N(C)C)n1 [Foramsulfron],5.76
19,O=Cc1c[nH]c2ccccc12 [Indole-3-carboxaldehyde],4.24
20,CCN(Cc1ccc(Cl)nc1)C(=C[N+](=O)[O-])NC [Nitenpyram],3.63
21,O=C(Nc1ccccc1)Nc1cnns1 [Thidiazuron],4.75
22,C#CC(C)(C)NC(=O)c1cc(Cl)cc(Cl)c1 [Propyzamide],5.6
23,CCCCCCCCCC[n+]1cccc(S(=O)(=O)[O-])c1 [C10-APS],5.39
24,C#CCCCCCCCCCCCCCCCC(=O)O [17-Octadecynoic acid],6.53

row,Compound,LC retention time [min]
1,O=C(O)CCCC(=O)O [Glutaric acid],1.37
2,O=[N+]([O-])c1cc(C(F)(F)F)c(Cl)c([N+](=O)[O-])c1Nc1ncc(C(F)(F)F)cc1Cl [Fluazinam],6.33
3,CCCCCCCCCCCCCCCCC[n+]1cccc(S(=O)(=O)[O-])c1 [C17-APS],6.44
4,CCCCCCCCCCCCCCCCCCCCCCCCCCC(=O)O [Heptacosanoic Acid],7.05
5,O=C(O)c1ccc(O)cc1 [4-HYDROXYBENZOATE],0.822
6,CCCCCCCCCCCCCCCCCCCCCCCCCCCCCC(=O)O [Melissic acid],7.12
7,CCCCCCCCCCCCCCCCCCC[n+]1cccc(S(=O)(=O)[O-])c1 [C19-APS],6.61
8,CCCCCCCCC=CCCCCCCCCCCCC(=O)O [Erucic acid],6.84
9,CC(=O)Oc1ccccc1 [PHENYL ACETATE],2.46
10,CC=C(C)C(=O)NCC(=O)O [Tiglyl Glycine],2.95
11,CC(C)CCCCCCCCCCCCC(=O)O [Isopalmitic acid],6.54
12,O=C(O)CCCCC(=O)O [Adipic acid],2.5
13,O=C(O)Cc1ccccc1 [PHENYLACETATE],2.46
14,C=CCC(C)C(=O)O (configuration not stated) [2-Methyl-4-pentenoic acid],3.16
15,COP(=O)(NC(C)=O)SC (configuration not stated) [Acephate],2.34
16,CCCCCCCCCCCCCCCCCCCC(=O)O [Arachidic acid],6.68
17,CC[n+]1cccc(S(=O)(=O)[O-])c1 [C2-APS],0.835
18,CCCCCCCCCCCCCCCCCCCCCC(=O)O [Behenic acid],6.86
19,CCCCCC[n+]1cccc(S(=O)(=O)[O-])c1 [C6-APS],3.92
20,CCC[n+]1cccc(S(=O)(=O)[O-])c1 [C3-APS],1.67
21,CCCCCCCCCCCCCCCCCCCCC(=O)O [Heneicosanoic acid],6.82
22,CCCCCCCCCC=CC(=O)OC(CC(=O)[O-])C[N+](C)(C)C [trans-2-Dodecenoyl-L-carnitine],5.46
23,CCC(C)CCCCCCCCCCCCC(=O)O (configuration not stated) [14-Methylhexadecanoic acid],6.58

# Continued, values first:
row,LC retention time [min],Compound
1,2.53,NC(Cc1c[nH]c2ccccc12)C(=O)O (configuration not stated) [TRYPTOPHAN]
2,0.695,"Nc1ncnc2c1ncn2C1OC(COP(=O)(O)O)C(OP(=O)(O)O)C1O (configuration not stated) [ADENOSINE 3',5'-DIPHOSPHATE]"
3,1.22,O=c1ccn(C2CC(O)C(CO)O2)c(=O)[nH]1 (configuration not stated) [DEOXYURIDINE]
4,5.67,Cc1c(=O)c(=O)c2c3c[nH]c4c(C)c(=O)c(=O)c(c5c[nH]c1c52)c43 [MELANIN]
5,3.65,O=C(O)CCc1ccc(O)cc1 [3-(4-Hydroxyphenyl)propionic acid]
6,0.702,CC(=O)NC(CC(N)=O)C(=O)O (configuration not stated) [N-ACETYLASPARAGINE]
7,1.59,Nc1nc2c(ncn2C2CC(O)C(CO)O2)c(=O)[nH]1 (configuration not stated) [DEOXYGUANOSINE]
8,3.79,O=C(O)[C@H](O)Cc1ccccc1 [D-(+)-3-Phenyllactic acid]
9,3.58,O=C(O)c1cc(=O)c2ccccc2[nH]1 [Kynurenic acid]
10,3.59,"N[C@@H](Cc1cc(I)c(O)c(I)c1)C(=O)O [3,5-DIIODO-L-TYROSINE]"
11,3.25,CC(CCC(=O)O)CC(=O)O (configuration not stated) [3-Methyladipic acid]
12,1.14,Nc1nc2c(ncn2C2OC3COP(=O)(O)OC3C2O)c(=O)[nH]1 (configuration not stated) [CYCLIC GMP]
13,3.58,CC(=O)NCCc1c[nH]c2ccc(O)cc12 [N-ACETYLSEROTONIN]
14,5.88,CC(=O)OCC(=O)C1(O)CCC2C3CCC4=CC(=O)CCC4(C)C3C(O)CC21C (configuration not stated) [CORTISOL 21-ACETATE]
15,4.42,O=C(O)CNC(=O)C=Cc1ccccc1 [N-(CINNAMOYL)GLYCINE]
16,0.933,O=c1[nH]c(=O)c2[nH]cnc2[nH]1 [XANTHINE]
17,0.724,NCCc1ccc(O)c(O)c1 [DOPAMINE]
18,4.19,O=C(O)Cc1c[nH]c2ccccc12 [3-Indoleacetic acid]
19,2.88,CC(=O)N[C@@H](Cc1ccc(O)cc1)C(=O)O [N-Acetyl-L-tyrosine]
20,2.57,"O=C(O)c1cc(O)ccc1O [2,5-DIHYDROXYBENZOATE]"
21,1.99,NC(=O)C1CCCN1C(=O)C(Cc1cnc[nH]1)NC(=O)C1CCC(=O)N1 (configuration not stated) [THYROTROPIN RELEASING HORMONE]
22,3.54,Cn1c(=O)c2[nH]cnc2n(C)c1=O [THEOPHYLLINE]
23,2.25,Cc1ncc2c(c1O)C(=O)OC2 [4-Pyridoxolactone]

row,LC retention time [min],Compound
1,0.796,NC(Cc1ccc(O)cc1)C(=O)O (configuration not stated) [TYROSINE]
2,0.818,O=C(O)C=C(CC(=O)O)C(=O)O [cis-Aconitic acid]
3,0.837,Cc1cn(C2CC(O)C(COP(=O)(O)O)O2)c(=O)[nH]c1=O (configuration not stated) [THYMIDINE-MONOPHOSPHATE]
4,2.46,COc1cc(CC(=O)O)ccc1O [HOMOVANILLATE]
5,0.702,N[C@@H](Cc1ccc(O)c(O)c1)C(=O)O [L-DOPA]
6,5.83,CC(CCC(=O)NCCS(=O)(=O)O)C1CCC2C3C(O)CC4CC(O)CCC4(C)C3CC(O)C12C (configuration not stated) [Taurocholic acid sodium salt hydrate]
7,3.16,"CC(C)(CC(=O)O)CC(=O)O [3,3-Dimethylglutaric acid]"
8,6.16,CC(CCC(=O)NCC(=O)O)C1CCC2C3CCC4CC(O)CCC4(C)C3CC(O)C12C (configuration not stated) [Glycodeoxycholic acid]
9,0.77,O=C(O)CC(O)CC(=O)O [3-Hydroxyglutaric acid]
10,0.96,CC(C(=O)O)C(=O)O [Methylmalonic acid]
11,0.695,Nc1nc2c(ncn2C2CC(O)C(COP(=O)(O)OP(=O)(O)O)O2)c(=O)[nH]1 (configuration not stated) [DGDP]
12,5.79,CC(CCC(=O)NCC(=O)O)C1CCC2C3CC(O)C4CC(O)CCC4(C)C3CCC12C (configuration not stated) [Glycohyodeoxycholic acid]
13,3.44,O=C(O)CNC(=O)c1ccccc1 [HIPPURATE]
14,0.842,O=C(O)CC(CC(=O)O)C(=O)O [Tricarballylic acid]
15,6.51,CC(=O)C1CCC2C3CC=C4CC(OS(=O)(=O)O)CCC4(C)C3CCC12C (configuration not stated) [PREGNENOLONE SULFATE]
16,6.13,CC(CCC(=O)O)C1CCC2C3C(=O)CC4CC(=O)CCC4(C)C3CC(=O)C12C (configuration not stated) [Dehydrocholic acid]
17,4.07,Cc1cc2nc3c(=O)[nH]c(=O)nc-3n(CC(O)C(O)C(O)COP(=O)(O)OP(=O)(O)OCC3OC(n4cnc5c(N)ncnc54)C(O)C3O)c2cc1C (configuration not stated) [FAD]
18,6.04,COC(=O)c1ccc(CNS(C)(=O)=O)cc1S(=O)(=O)NC(=O)Nc1nc(OC)cc(OC)n1 [Mesosulfuron-methyl]
19,2.88,O=C(O)C(=O)Cc1ccccc1 [Phenylpyruvic acid]
20,0.702,Cc1cn(C2CC(O)C(COP(=O)(O)OP(=O)(O)OC3OC(CO)C(O)C(O)C3O)O2)c(=O)[nH]c1=O [DTDP-D-GLUCOSE]
21,4.59,CCCCCCSCC(NC(=O)CCC(N)C(=O)O)C(=O)NCC(=O)O (configuration not stated) [S-HEXYL-GLUTATHIONE]
22,0.954,O=C(O)CCC(O)CC(=O)O (configuration not stated) [3-Hydroxyhexanedioic Acid]
